Laboratory results taken from patent US11324706B2, “Composition for inhibiting growth of breast cancer stem cells containing phenylacetaldehyde” (JEJU NATIONAL UNIVERSITY INDUSTRY-ACADEMIC COOPERATION …, priority 2016, dated 2022).

Tested on: MCF-7 cell-derived mammospheres
Assay: Mammosphere formation, MCF-7-derived
Type: cell-based, human
Conditions: volatile materials exposed to MCF-7 (FIG. 5B)
Procedure: FIGS. 4A, 4B and 4C show effects of PAA on formation of MCF-7 cell-derived mammospheres. Primary mammospheres were cultured together with PAA (0.2 and 0.5 mM) or DMSO;
Human breast cancer cells, i.e., MCF-7 and MDA-MB-231, were commercially obtained from American Type Culture Collection (ATCC; Manassas, Va., USA). MCF-7 and MDA-MB-231 cells were cultured in Dulbecco's modified essential medium (DMEM; Hyclone, Logan, Utah, USA) containing 10% fetal bovine serum (FBS; Hyclone), 100 U/mL of penicillin, and 100 μg/mL of streptomycin (Hyclone). The MCF-7 and MDA-MB-231 cells were maintained at 37° C. in a 5% CO2-containing humidified incubator. The cells were plated at a density of 1×10^6 on a 10 cm petri dish. In order to establish primary mammospheres, single cell-suspended MCF-7 and MDA-MB-231 cells were seeded at a density (cells/well) of 3.5×10^4 to 4×10^4 and 0.5×10^4 to 1×10^4, respectively, on ultra-low attachment 6-well plates containing 2 ml complete MammoCult™ medium (StemCell Technologies, Vancouver, BC, Canada). The complete MammoCult™ medium was supplemented with 4 μg/mL of heparin, 0.48 μg/mL of hydrocortisone, 100 U/mL of penicillin and 100 μg/mL of streptomycin. The cells were cultured for 7 days in a 37° C. 5% CO2 incubator.
At 7 days of culture, the cell culture plate was disposed on a scanner (Epson Perfection V700 PHOTO, Epson Korea, Co, Seoul, Korea) to obtain an 8 bit gray scale image of mammospheres. The image was obtained at a low resolution (300 dpi) using an NICE software program and downloaded from ftp://ftp.nist.gov/pub/physics/mLclarke/NICE. For counting, preferred numbers of rows and columns (for example, 2×3 of 6-well plate) were selected to form regions of interest (ROIs), and an oval setting of the NICE program was selected and then respective ROIs were defined by moving the shapes of provided ROIs and controlling the sizes thereof. The background signal of the image was negated using a critical algorithm and the selected image was automatically counted. Regarding the mammosphere formation analysis, formation efficiency of mammospheres (MFE, %) was determined in accordance with the number of mammospheres per well/the total number of cells plated per well×100.

| SMILES | formation of primary mammospheres derived from MCF-7 cells |
| --- | --- |
| CC(C=O)c1ccccc1 (centres unmarked) [2-phenylpropionaldehyde] | potently inhibited |
| O=CCCc1ccccc1 [3-phenylpropionaldehyde] | inhibited |
